The text below walks through data of patent US7491819B1 (priority 2004, dated 2009).

For this experiment, the target named is T1, HIV-integrase (Human immunodeficiency virus type 1 group M subtype B, UniProt P12497).
T1 construct: Recombinant integrase (0.26 ng) was incubated with the beads
Description: HIV-Integrase Inhibition Activity (SPA bead strand-transfer assay). In kind it is biochemical. To be noted: Table 1; read-out: Activity (HIV-integrase inhibition, IC50 class). As to the method: HIV-Integrase Inhibition Activity. To evaluate in-vitro activity against HIV-integrase, 5 pmole of biotin labeled substrate DNA was bound to 100 μg of Streptavidin coated PVT SPA beads (Amersham Pharmacia Biotech). Recombinant integrase (0.26 ng) was incubated with the beads for 90 min at 37° C. Unbound enzyme was removed by washing the complex followed by addition of inhibitors and 0.1 fmol of P33 labeled target DNA. The reaction was stopped by adding EDTA to a final concentration of 10 mM. Samples were counted in TopCountNXT (Packard) and the CPM was used as a measure of integration. The reaction condition was as described in A. Engelman and R. Craigie, J. Virol 69, 5908-5911 (1995). The sequences of substrate and target DNA were described in Nucleic Acid Research 22, 1121-1122 (1994).
On to `CC1(C)OCCn2c1nc(C(=O)NCc1ccc(F)cc1-n1cnc(C(=O)NS(C)(=O)=O)n1)c(O)c2=O` [Example 64, Pyrimido[2,1-c][1,4]oxazine-2-carboxamide, N-[[4-fluoro-2-[3-[[(methylsulfonyl)amino]carbonyl]-1H-1,2,4-triazol-1-yl]phenyl]methyl]-4,6,7,9-tetrahydro-3-hydroxy-9,9-dimethyl-4-oxo-], for which the IC50 lay in the range of 2 to 100 nM.

In the case of `CNC(=O)c1ncn(-c2cc(F)ccc2CNC(=O)c2nc3n(c(=O)c2O)CCOC3(C)C)n1` [Example 65, Pyrimido[2,1-c][1,4]oxazine-2-carboxamide, 4,6,7,9-tetrahydro-3-hydroxy-N-[(1R)-2-hydroxy-1-phenylethyl]-9,9-dimethyl-4-oxo-], the IC50 was 2 to 100 nM.

With `CC(=O)N1CCN(C(=O)c2ncn(-c3cc(F)ccc3CNC(=O)c3nc4n(c(=O)c3O)CCOC4(C)C)n2)CC1` [Example 66, Pyrimido[2,1-c][1,4]oxazine-2-carboxamide, N-[[2-[3-[(4-acetyl-1-piperazinyl)carbonyl]-1H-1,2,4-triazol-1-yl]-4-fluorophenyl]methyl]-4,6,7,9-tetrahydro-3-hydroxy-9,9-dimethyl-4-oxo-], the IC50 lay within 2 to 100 nM.

As for `CN(CCO)C(=O)c1ncn(-c2cc(F)ccc2CNC(=O)c2nc3n(c(=O)c2O)CCOC3(C)C)n1` [Example 67, Pyrimido[2,1-c][1,4]oxazine-2-carboxamide, N-[[4-fluoro-2-[3-[[(2-hydroxyethyl)methylamino]carbonyl]-1H-1,2,4-triazol-1-yl]phenyl]methyl]-4,6,7,9-tetrahydro-3-hydroxy-9,9-dimethyl-4-oxo-], the half-maximal inhibitory concentration (IC50) is 2 to 100 nM.

As for `CC1(C)OCCn2c1nc(C(=O)NCc1ccc(F)cc1-n1cnc(C(=O)NS(=O)(=O)c3ccc(F)cc3)n1)c(O)c2=O` [Example 68, Pyrimido[2,1-c][1,4]oxazine-2-carboxamide, N-[[4-fluoro-2-[3-[[[(4-fluorophenyl)sulfonyl]amino]carbonyl]-1H-1,2,4-triazol-1-yl]phenyl]methyl]-4,6,7,9-tetrahydro-3-hydroxy-9,9-dimethyl-4-oxo-], the 50% inhibitory concentration (IC50) lay within 2 to 100 nM.

For `CN1CCN(C(=O)c2ncn(-c3cc(F)ccc3CNC(=O)c3nc4n(c(=O)c3O)CCOC4(C)C)n2)CC1` [Example 69, Pyrimido[2,1-c][1,4]oxazine-2-carboxamide, N-[[4-fluoro-2-[3-[(4-methyl-1-piperazinyl)carbonyl]-1H-1,2,4-triazol-1-yl]phenyl]methyl]-4,6,7,9-tetrahydro-3-hydroxy-9,9-dimethyl-4-oxo-], the IC50 is 2 to 100 nM.

For the molecule `CN(C)CCNC(=O)c1ncn(-c2cc(F)ccc2CNC(=O)c2nc3n(c(=O)c2O)CCOC3(C)C)n1` [Example 70, Pyrimido[2,1-c][1,4]oxazine-2-carboxamide, N-[[2-[3-[[[2-(dimethylamino)ethyl]amino]carbonyl]-1H-1,2,4-triazol-1-yl]-4-fluorophenyl]methyl]-4,6,7,9-tetrahydro-3-hydroxy-9,9-dimethyl-4-oxo-], the IC50 lay in the range of 2 to 100 nM.

With `CN(C)CCN(C)C(=O)c1ncn(-c2cc(F)ccc2CNC(=O)c2nc3n(c(=O)c2O)CCOC3(C)C)n1` [Example 71, Pyrimido[2,1-c][1,4]oxazine-2-carboxamide, N-[[2-[3-[[[2-(dimethylamino)ethyl]methylamino]carbonyl]-1H-1,2,4-triazol-1-yl]-4-fluorophenyl]methyl]-4,6,7,9-tetrahydro-3-hydroxy-9,9-dimethyl-4-oxo-], the IC50 lay within 2 to 100 nM.

Consider `CC1(C)OCCn2c1nc(C(=O)NCc1ccc(F)cc1-n1cnc(C(=O)NCCO)n1)c(O)c2=O` [Example 72, Pyrimido[2,1-c][1,4]oxazine-2-carboxamide, N-[[4-fluoro-2-[3-[[(2-hydroxyethyl)amino]carbonyl]-1H-1,2,4-triazol-1-yl]phenyl]methyl]-4,6,7,9-tetrahydro-3-hydroxy-9,9-dimethyl-4-oxo-], for which the half-inhibitory concentration (IC50) was 2 to 100 nM.

As to `CC1(C)OCCn2c1nc(C(=O)NCc1ccc(F)cc1I)c(O)c2=O` [Example 73, Pyrimido[2,1-c][1,4]oxazine-2-carboxamide, N-[(4-fluoro-2-iodophenyl)methyl]-4,6,7,9-tetrahydro-3-hydroxy-9,9-dimethyl-4-oxo-], the IC50 fell in the range of 2 to 100 nM.

Take `CC1(C)OCCn2c1nc(C(=O)NCc1ccc(F)cc1-c1ccccc1)c(O)c2=O` [Example 74, Pyrimido[2,1-c][1,4]oxazine-2-carboxamide, N-[(5-fluoro[1,1′-biphenyl]-2-yl)methyl]-4,6,7,9-tetrahydro-3-hydroxy-9,9-dimethyl-4-oxo-]: the IC50 lay within 2 to 100 nM.

For `CC1(C)OCCn2c1nc(C(=O)NCc1ccc(F)cc1-c1cccnc1)c(O)c2=O` [Example 75, Pyrimido[2,1-c][1,4]oxazine-2-carboxamide, N-[[4-fluoro-2-(3-pyridinyl)phenyl]methyl]-4,6,7,9-tetrahydro-3-hydroxy-9,9-dimethyl-4-oxo-], the IC50 was in the range of 2 to 100 nM.

With `COc1ccc(-c2cc(F)ccc2CNC(=O)c2nc3n(c(=O)c2O)CCOC3(C)C)cn1` [Example 77, Pyrimido[2,1-c][1,4]oxazine-2-carboxamide, N-[[4-fluoro-2-(6-methoxy-3-pyridinyl)phenyl]methyl]-4,6,7,9-tetrahydro-3-hydroxy-9,9-dimethyl-4-oxo], the half-inhibitory concentration (IC50) was in the range of 2 to 100 nM.

In the case of `CC1(C)OCCn2c1nc(C(=O)NCc1ccc(F)cc1-c1ccc[nH]c1=O)c(O)c2=O` [Example 78, Pyrimido[2,1-c][1,4]oxazine-2-carboxamide, N-[[2-(1,2-dihydro-2-oxo-3-pyridinyl)-4-fluorophenyl]methyl]-4,6,7,9-tetrahydro-3-hydroxy-9,9-dimethyl-4-oxo-], the IC50 lay in the range of 2 to 100 nM.

With `CC1(C)OCCn2c1nc(C(=O)NCc1ccc(F)cc1-c1ccc(=O)[nH]c1)c(O)c2=O` [Example 79, Pyrimido[2,1-c][1,4]oxazine-2-carboxamide, N-[[2-(1,6-dihydro-6-oxo-3-pyridinyl)-4-fluorophenyl]methyl]-4,6,7,9-tetrahydro-3-hydroxy-9,9-dim ethyl-4-oxo-], the half-inhibitory concentration (IC50) was 2 to 100 nM.

For `CC1(C)OCCn2c1nc(C(=O)NCc1ccc(F)cc1-c1cccc(=O)[nH]1)c(O)c2=O` [Example 80, Pyrimido[2,1-c][1,4]oxazine-2-carboxamide, N-[[2-(1,6-dihydro-6-oxo-2-pyridinyl)-4-fluorophenyl]methyl]-4,6,7,9-tetrahydro-3-hydroxy-9,9-dimethyl-4-oxo-], the IC50 was 2 to 100 nM.

Regarding `Cc1ncn(-c2cc(F)ccc2CNC(=O)c2nc3n(c(=O)c2O)CCOC3(C)C)n1` [Example 81, Pyrimido[2,1-c][1,4]oxazine-2-carboxamide, N-[[4-fluoro-2-(3-methyl-1H-1,2,4-triazol-1-yl)phenyl]methyl]-4,6,7,9-tetrahydro-3-hydroxy-9,9-dimethyl-4-oxo-], the half-maximal inhibitory concentration (IC50) fell in the range of 2 to 100 nM.

For the molecule `Cc1ncnn1-c1cc(F)ccc1CNC(=O)c1nc2n(c(=O)c1O)CCOC2(C)C` [Example 82, Pyrimido[2,1-c][1,4]oxazine-2-carboxamide, N-[[4-fluoro-2-(5-methyl-1H-1,2,4-triazol-1-yl)phenyl]methyl]-4,6,7,9-tetrahydro-3-hydroxy-9,9-dimethyl-4-oxo-], the IC50 lay within 2 to 100 nM.

Turning to `Cc1ncn(-c2ccc(CNC(=O)c3nc4n(c(=O)c3O)CCOC4(C)C)c(F)c2)n1` [Example 83, Pyrimido[2,1-c][1,4]oxazine-2-carboxamide, N-[[2-fluoro-4-(3-methyl-1H-1,2,4-triazol-1-yl)phenyl]methyl]-4,6,7,9-tetrahydro-3-hydroxy-9,9-dimethyl-4-oxo-], the half-maximal inhibitory concentration (IC50) is greater than 1000 nM.

Take `CC1(C)OCCn2c1nc(C(=O)NCc1ccc(F)cc1-c1csnn1)c(O)c2=O` [Example 84, Pyrimido[2,1-c][1,4]oxazine-2-carboxamide, N-[[4-fluoro-2-(1,2,3-thiadiazol-4-yl)phenyl]methyl]-4,6,7,9-tetrahydro-3-hydroxy-9,9-dimethyl-4-oxo-]: the half-maximal inhibitory concentration (IC50) fell in the range of 2 to 100 nM.

For the molecule `CC1(C)OCCn2c1nc(C(=O)NCc1ccc(F)cc1-c1ccn[nH]1)c(O)c2=O` [Example 85, Pyrimido[2,1-c][1,4]oxazine-2-carboxamide, N-[[4-fluoro-2-(1H-pyrazol-5-yl)phenyl]methyl]-4,6,7,9-tetrahydro-3-hydroxy-9,9-dimethyl-4-oxo-], the concentration for half-maximal inhibition (IC50) is 2 to 100 nM.

For the molecule `Cc1cnc(-c2cc(F)ccc2CNC(=O)c2nc3n(c(=O)c2O)CCOC3(C)C)o1` [Example 86, Pyrimido[2,1-c][1,4]oxazine-2-carboxamide, N-[[4-fluoro-2-(5-methyl-2-oxazolyl)phenyl]methyl]-4,6,7,9-tetrahydro-3-hydroxy-9,9-dimethyl-4-oxo-], the IC50 is 2 to 100 nM.

For the molecule `CCNc1cc(F)ccc1CNC(=O)c1nc2n(c(=O)c1O)CCOC2(C)C` [Example 87, Pyrimido[2,1-c][1,4]oxazine-2-carboxamide, N-[[2-(ethylamino)-4-fluorophenyl]methyl]-4,6,7,9-tetrahydro-3-hydroxy-9,9-dimethyl-4-oxo-], the concentration for half-maximal inhibition (IC50) was in the range of 2 to 100 nM.

Turning to `C#Cc1cc(F)ccc1CNC(=O)c1nc2n(c(=O)c1O)CCOC2(C)C` [Example 88, Pyrimido[2,1-c][1,4]oxazine-2-carboxamide, N-[(2-ethynyl-4-fluorophenyl)methyl]-4,6,7,9-tetrahydro-3-hydroxy-9,9-dimethyl-4-oxo-], the IC50 lay in the range of 2 to 100 nM.

With `CC1(C)OCCn2c1nc(C(=O)NCc1ccc(F)cc1C#CCO)c(O)c2=O` [Example 89, Pyrimido[2,1-c][1,4]oxazine-2-carboxamide, N-[[4-fluoro-2-(3-hydroxy-1-propynyl)phenyl]methyl]-4,6,7,9-tetrahydro-3-hydroxy-9,9-dimethyl-4-oxo-], the concentration for half-maximal inhibition (IC50) was in the range of 2 to 100 nM.
